According to EP0093484A2, “Antibacterial monic acid derivatives” (BEECHAM GROUP PLC, priority 1982, dated 1983):
Converted amounts (≈) assume the structure as drawn. Where two headings read alike, the source gives them in different places.

What was measured:
M. suipneumoniae HK(2) = experiment: Anti-mycoplasmal activity, MIC in Friis broth agarose; type: cell-based; settings: Friis broth solidified with 0.9% agarose, 6 days incubation at 37°C
Ps. aeruginosa 10662 = experiment: Human bacteria, MIC by serial dilution in nutrient agar; type: cell-based; settings: nutrient agar with 5% chocolated horse blood, 18 hours at 37°C
E. coli NCTC 10418 [1] = experiment: Veterinary bacteria, MIC by two fold serial dilution in agar
Experimental: (§1) The activity of the compounds of the Examples against various organisms important in veterinary infections was determined using two fold serial dilutions in Diagnostic Sensitivity Test Agar inoculated with 10^4 organisms.

[2] = tested on: Pasteurella multocida 1633; experiment: Human bacteria, MIC by serial dilution in nutrient agar; type: cell-based; settings: nutrient agar with 5% chocolated horse blood, 18 hours at 37°C
Strep. pneumoniae CN33 = experiment: as above; type: cell-based; settings: nutrient agar with 5% chocolated horse blood, 18 hours at 37°C
[3] = tested on: Corynebacterium pyogenes CY1; experiment: Veterinary bacteria, MIC by two fold serial dilution in agar
Experimental: as §1

Strep. spp. 64/848-C = experiment: Human bacteria, MIC by serial dilution in nutrient agar; type: cell-based; settings: nutrient agar with 5% chocolated horse blood, 18 hours at 37°C
M. suipneumoniae UCD 1 = experiment: Anti-mycoplasmal activity, MIC in Friis broth agarose; type: cell-based; settings: Friis broth solidified with 0.9% agarose, 6 days incubation at 37°C
M. suipneumoniae JF 435 = experiment: as above; type: cell-based; settings: Friis broth solidified with 0.9% agarose, 6 days incubation at 37°C
[4] = tested on: Neisseria catarrhalis 1502; experiment: Human bacteria, MIC by serial dilution in nutrient agar; type: cell-based; settings: nutrient agar with 5% chocolated horse blood, 18 hours at 37°C
M. suipneumoniae LABER = experiment: Anti-mycoplasmal activity, MIC in Friis broth agarose; type: cell-based; settings: Friis broth solidified with 0.9% agarose, 6 days incubation at 37°C
M. suipneumoniae TAM 6N = experiment: as above; type: cell-based; settings: Friis broth solidified with 0.9% agarose, 6 days incubation at 37°C
Strep. faecalis I = experiment: Human bacteria, MIC by serial dilution in nutrient agar; type: cell-based; settings: nutrient agar with 5% chocolated horse blood, 18 hours at 37°C
M. suipneumoniae MS16 = experiment: Anti-mycoplasmal activity, MIC in Friis broth agarose; type: cell-based; settings: Friis broth solidified with 0.9% agarose, 6 days incubation at 37°C
E. coli E1 = experiment: Veterinary bacteria, MIC by two fold serial dilution in agar
Experimental: as §1

Bord. bronchiseptica BO9 = experiment: as above
Experimental: as §1

E. coli ESS = experiment: Human bacteria, MIC by serial dilution in nutrient agar; type: cell-based; settings: nutrient agar with 5% chocolated horse blood, 18 hours at 37°C
[5] = tested on: Strep. pyogenes R80/421-A; experiment: as above; type: cell-based; settings: nutrient agar with 5% chocolated horse blood, 18 hours at 37°C
Strep. dysgalactiae SPD1 = experiment: Veterinary bacteria, MIC by two fold serial dilution in agar
Experimental: as §1

M. hyorhinis ATCC 23234 = experiment: Anti-mycoplasmal activity, MIC in Friis broth agarose; type: cell-based; settings: Friis broth solidified with 0.9% agarose, 6 days incubation at 37°C
[6] = tested on: M. suipneumoniae PW/C/210; experiment: as above; type: cell-based; settings: Friis broth solidified with 0.9% agarose, 6 days incubation at 37°C
M. suipneumoniae NB12 = experiment: as above; type: cell-based; settings: Friis broth solidified with 0.9% agarose, 6 days incubation at 37°C
S. typhimurium S18 = experiment: Veterinary bacteria, MIC by two fold serial dilution in agar
Experimental: as §1

E. coli NCTC 10418 [7] = experiment: Human bacteria, MIC by serial dilution in nutrient agar; type: cell-based; settings: E. coli NCTC 10418 (human panel), nutrient agar with 5% chocolated horse blood, 18 hours at 37°C
[8] = tested on: Staph. aureus 152 (pen. sens.); experiment: Veterinary bacteria, MIC by two fold serial dilution in agar
Experimental: as §1

Past. multocida PA1 = experiment: as above
Experimental: as §1

M. dispar NCTC 10125 = experiment: Anti-mycoplasmal activity, MIC in Friis broth agarose; type: cell-based; settings: Friis broth solidified with 0.9% agarose, 6 days incubation at 37°C
[9] = tested on: M. suipneumoniae ATCC 25095; experiment: as above; type: cell-based; settings: Friis broth solidified with 0.9% agarose, 6 days incubation at 37°C
M. pneumoniae ATCC 15492 = experiment: as above; type: cell-based; settings: Friis broth solidified with 0.9% agarose, 6 days incubation at 37°C
Bord. bronchiseptica B08 = experiment: Veterinary bacteria, MIC by two fold serial dilution in agar
Experimental: as §1

[10] = tested on: Corynebacterium xerosis 9755; experiment: Human bacteria, MIC by serial dilution in nutrient agar; type: cell-based; settings: nutrient agar with 5% chocolated horse blood, 18 hours at 37°C
[11] = tested on: Staph. aureus B4 (pen. resistant); experiment: Veterinary bacteria, MIC by two fold serial dilution in agar
Experimental: as §1

M. bovis NCTC 10131 = experiment: microbe, parasite or virus in culture; type: cell-based
Staph. aureus Russell = experiment: Human bacteria, MIC by serial dilution in nutrient agar; type: cell-based; settings: nutrient agar with 5% chocolated horse blood, 18 hours at 37°C
P. mirabilis 889 = experiment: as above; type: cell-based; settings: nutrient agar with 5% chocolated horse blood, 18 hours at 37°C
K. aerogenes A = experiment: as above; type: cell-based; settings: nutrient agar with 5% chocolated horse blood, 18 hours at 37°C
Staph. aureus W2827 = experiment: as above; type: cell-based; settings: nutrient agar with 5% chocolated horse blood, 18 hours at 37°C
[12] = tested on: Haemophilus influenzae Wy21; experiment: as above; type: cell-based; settings: nutrient agar with 5% chocolated horse blood, 18 hours at 37°C
[13] = tested on: M. bovigenitalium ATCC 14173; experiment: Anti-mycoplasmal activity, MIC in Friis broth agarose; type: cell-based; settings: Friis broth solidified with 0.9% agarose, 6 days incubation at 37°C
Past. multocida PA2 = experiment: Veterinary bacteria, MIC by two fold serial dilution in agar; settings: Pasteurella multocida, PA2, 18 h
Experimental: as §1

[14] = Mesomycoplasma hyopneumoniae, 144 h, read-out: MIC
[15] = Staphylococcus aureus, read-out: MIC

Question: Which results are given for “1-(p-Methylsulfinylphenyl)ethyl monate A [Example 8]”?
Answer: MIC (M. suipneumoniae HK(2)): 2.5 mg/L; MIC (Ps. aeruginosa 10662): >128 mg/L; MIC (E. coli NCTC 10418 [1]; E. coli NCTC 10418 (veterinary panel), Diagnostic Sensitivity Test Agar, 18 hours at 37°C): >80 mg/L; MIC [2]: 8.0 mg/L; MIC (Strep. pneumoniae CN33): 8.0 mg/L; MIC ([3]; Corynebacterium pyogenes CY1, Diagnostic Sensitivity Test Agar, 18 hours at 37°C): >80 mg/L; MIC (Strep. spp. 64/848-C): 4.0 mg/L; MIC (M. suipneumoniae UCD 1): 2.5 mg/L; MIC (M. suipneumoniae JF 435): 2.5 mg/L; MIC [4]: 4.0 mg/L; MIC (M. suipneumoniae LABER): 2.5 mg/L; MIC (M. suipneumoniae TAM 6N): 2.5 mg/L; MIC (Strep. faecalis I): >128 mg/L; MIC (M. suipneumoniae MS16): 1.0 mg/L; MIC (E. coli E1; E. coli E1, Diagnostic Sensitivity Test Agar, 18 hours at 37°C): >80 mg/L; MIC (Bord. bronchiseptica BO9; Bord. bronchiseptica BO9, Diagnostic Sensitivity Test Agar, 18 hours at 37°C): >80 mg/L; MIC (E. coli ESS): 4.0 mg/L; MIC [5]: 2.0 mg/L; MIC (Strep. dysgalactiae SPD1; Strep. dysgalactiae SPD1, Diagnostic Sensitivity Test Agar, 18 hours at 37°C): 2.5 mg/L; MIC (M. hyorhinis ATCC 23234): 1.0 mg/L; MIC [6]: 1.0 mg/L; MIC (M. suipneumoniae NB12): 2.5 mg/L; MIC (S. typhimurium S18; S. typhimurium S18, Diagnostic Sensitivity Test Agar, 18 hours at 37°C): >80 mg/L; MIC (E. coli NCTC 10418 [7]): >128 mg/L; MIC ([8]; Staph. aureus 152 (pen. sens.), Diagnostic Sensitivity Test Agar, 18 hours at 37°C): 5.0 mg/L; MIC (Past. multocida PA1; Past. multocida PA1, Diagnostic Sensitivity Test Agar, 18 hours at 37°C): 10 mg/L; MIC (M. dispar NCTC 10125): 0.5 mg/L; MIC [9]: 2.5 mg/L; MIC (M. pneumoniae ATCC 15492): 10 mg/L; MIC (Bord. bronchiseptica B08; Bord. bronchiseptica B08, Diagnostic Sensitivity Test Agar, 18 hours at 37°C): >80 mg/L; MIC [10]: >128 mg/L; MIC ([11]; Staph. aureus B4 (pen. resistant), Diagnostic Sensitivity Test Agar, 18 hours at 37°C): 20 mg/L; MIC (M. bovis NCTC 10131; M. bovis NCTC 10131, Friis broth solidified with 0.9% agarose, 6 days incubation at 37°C): .025 mg/L; MIC (Staph. aureus Russell): 32 mg/L; MIC (P. mirabilis 889): >128 mg/L; MIC (K. aerogenes A): >128 mg/L; MIC (Staph. aureus W2827): 32 mg/L; MIC [12]: 1.0 mg/L; MIC [13]: 0.1 mg/L

Question: With `CC(=CC(=O)OC(C)c1ccc(S(C)(=O)=O)cc1)CC1OCC(CC2OC2C(C)C(C)O)C(O)C1O` (stereo not drawn) [Example 9, 1-(p-Methylsulfonylphenyl)ethyl monate A] as the compound, how does the MIC (M. suipneumoniae HK(2); [14]) read?
Answer: 1 mg/L (≈ 1.9 µM)

Question: And the MIC (Ps. aeruginosa 10662; Pseudomonas aeruginosa, read-out: MIC)?
Answer: > 128 mg/L

Question: And the MIC (E. coli NCTC 10418 [1]; Escherichia coli, NCTC10418, 18 h)?
Answer: > 80 mg/L

Question: What about the MIC ([2]; read-out: MIC) of the same compound?
Answer: 8 mg/L (≈ 15.2 µM)

Question: What about the MIC (Strep. pneumoniae CN33; Streptococcus pneumoniae, read-out: MIC) of the same compound?
Answer: 4 mg/L (≈ 7.6 µM)

Question: And the MIC ([3]; CY1, 18 h)?
Answer: > 80 mg/L

Question: What about the MIC (Strep. spp. 64/848-C; read-out: MIC) of the same compound?
Answer: 4 mg/L (≈ 7.6 µM)

Question: What about the MIC (M. suipneumoniae UCD 1; Mesomycoplasma hyopneumoniae, UCD1, 144 h, read-out: MIC) of the same compound?
Answer: 1 mg/L (≈ 1.9 µM)

Question: What about the MIC (M. suipneumoniae JF 435; Mesomycoplasma hyopneumoniae, JF435, 144 h, read-out: MIC) of the same compound?
Answer: 1 mg/L (≈ 1.9 µM)

Question: What about the MIC ([4]; read-out: MIC) of the same compound?
Answer: 2 mg/L (≈ 3.8 µM)

Question: And the MIC (M. suipneumoniae LABER; [14])?
Answer: 0.5 mg/L (≈ 0.949 µM)

Question: What about the MIC (M. suipneumoniae TAM 6N; Mesomycoplasma hyopneumoniae, TAM6N, 144 h, read-out: MIC) of the same compound?
Answer: 1 mg/L (≈ 1.9 µM)

Question: And the MIC (Strep. faecalis I; Enterococcus faecalis, read-out: MIC)?
Answer: > 128 mg/L

Question: And the MIC (M. suipneumoniae MS16; [14])?
Answer: 0.5 mg/L (≈ 0.949 µM)

Question: What about the MIC (E. coli E1; Escherichia coli, E1, 18 h) of the same compound?
Answer: > 80 mg/L

Question: And the MIC (Bord. bronchiseptica BO9; Bordetella bronchiseptica, BO9, 18 h)?
Answer: 80 mg/L (≈ 152 µM)

Question: And the MIC (E. coli ESS; Escherichia coli, read-out: MIC)?
Answer: 4 mg/L (≈ 7.6 µM)

Question: What about the MIC (Past. multocida PA2) of the same compound?
Answer: 2.5 mg/L (≈ 4.75 µM)

Question: And the MIC ([5]; Streptococcus pyogenes, read-out: MIC)?
Answer: 1 mg/L (≈ 1.9 µM)

Question: What about the MIC (Strep. dysgalactiae SPD1; Streptococcus dysgalactiae, SPD1, 18 h) of the same compound?
Answer: 0.625 mg/L (≈ 1.19 µM)

Question: What about the MIC (M. hyorhinis ATCC 23234; Mesomycoplasma hyorhinis, ATCC23234, 144 h, read-out: MIC) of the same compound?
Answer: 0.5 mg/L (≈ 0.949 µM)

Question: What about the MIC (M. suipneumoniae NB12; [14]) of the same compound?
Answer: 1 mg/L (≈ 1.9 µM)

Question: What about the MIC (S. typhimurium S18; Salmonella enterica, TYPHIMURIUM, 18 h) of the same compound?
Answer: > 80 mg/L

Question: What about the MIC (E. coli NCTC 10418 [7]; Escherichia coli, NCTC10418, read-out: MIC) of the same compound?
Answer: > 128 mg/L

Question: What about the MIC ([8]; Staphylococcus aureus, 18 h) of the same compound?
Answer: 5 mg/L (≈ 9.49 µM)

Question: What about the MIC (Past. multocida PA1; Pasteurella multocida, PA1, 18 h) of the same compound?
Answer: 5 mg/L (≈ 9.49 µM)

Question: What about the MIC (M. dispar NCTC 10125; 144 h, read-out: MIC) of the same compound?
Answer: 0.05 mg/L (≈ 0.0949 µM)

Question: And the MIC ([9]; Mesomycoplasma hyopneumoniae, ATCC25095, 144 h, read-out: MIC)?
Answer: 0.5 mg/L (≈ 0.949 µM)

Question: And the MIC (M. pneumoniae ATCC 15492; Mycoplasmoides pneumoniae, ATCC15492, 144 h, read-out: MIC)?
Answer: 0.5 mg/L (≈ 0.949 µM)

Question: What about the MIC (Bord. bronchiseptica B08; Bordetella bronchiseptica, B08, 18 h) of the same compound?
Answer: > 80 mg/L

Question: What about the MIC ([10]; read-out: MIC) of the same compound?
Answer: > 128 mg/L

Question: What about the MIC ([11]; Staphylococcus aureus, 18 h) of the same compound?
Answer: 5 mg/L (≈ 9.49 µM)

Question: And the MIC (M. bovis NCTC 10131; NCTC10131, 144 h)?
Answer: < 0.01 mg/L

Question: And the MIC (Staph. aureus Russell; [15])?
Answer: 16 mg/L (≈ 30.4 µM)

Question: What about the MIC (P. mirabilis 889; Proteus mirabilis, read-out: MIC) of the same compound?
Answer: > 128 mg/L

Question: And the MIC (K. aerogenes A; Klebsiella aerogenes, read-out: MIC)?
Answer: > 128 mg/L

Question: And the MIC (Staph. aureus W2827; [15])?
Answer: 16 mg/L (≈ 30.4 µM)

Question: What about the MIC ([12]; read-out: MIC) of the same compound?
Answer: 0.5 mg/L (≈ 0.949 µM)

Question: And the MIC ([13]; 144 h, read-out: MIC)?
Answer: 0.05 mg/L (≈ 0.0949 µM)
